# Laboratory results: BindingDB's records for doi:10.1021/jm9704863 (Cor Therapeutics, 1998)
# Columns and labels:
# [1] = molecular target: Integrin alpha-IIb/beta-3 (Homo sapiens, UniProt P08514+P05106); assay: Inhibition of platelet aggregation induced by 20 uM adenosine 5'-diphosphate (ADP) in human platelet rich plasma (h-PRP).
# [2] = Inhibition of 20 uM ADP-induced platelet aggregation in human platelet-rich plasma
# Sequence of Integrin alpha-IIb/beta-3 (P05106 27-788 limits assumed): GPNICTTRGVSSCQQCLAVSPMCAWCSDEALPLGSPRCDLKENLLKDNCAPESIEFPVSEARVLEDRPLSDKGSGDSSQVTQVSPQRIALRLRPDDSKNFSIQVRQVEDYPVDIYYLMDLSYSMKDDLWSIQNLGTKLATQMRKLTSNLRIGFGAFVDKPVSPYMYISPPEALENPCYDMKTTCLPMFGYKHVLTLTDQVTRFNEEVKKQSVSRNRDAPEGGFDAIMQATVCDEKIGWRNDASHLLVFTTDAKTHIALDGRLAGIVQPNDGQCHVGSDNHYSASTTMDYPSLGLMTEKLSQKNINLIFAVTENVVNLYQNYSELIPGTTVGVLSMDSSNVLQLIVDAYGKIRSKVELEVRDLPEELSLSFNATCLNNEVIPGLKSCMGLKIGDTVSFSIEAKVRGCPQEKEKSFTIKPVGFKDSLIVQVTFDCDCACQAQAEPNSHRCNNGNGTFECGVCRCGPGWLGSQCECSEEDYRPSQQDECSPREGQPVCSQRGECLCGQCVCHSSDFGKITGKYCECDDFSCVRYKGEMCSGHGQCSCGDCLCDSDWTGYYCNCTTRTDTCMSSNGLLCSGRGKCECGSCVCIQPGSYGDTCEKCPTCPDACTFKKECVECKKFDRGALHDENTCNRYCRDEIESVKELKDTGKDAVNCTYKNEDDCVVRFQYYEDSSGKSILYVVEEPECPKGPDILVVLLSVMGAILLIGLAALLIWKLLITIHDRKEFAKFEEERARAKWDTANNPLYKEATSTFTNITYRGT
# Sequence of Integrin alpha-IIb/beta-3 (P08514 32-887 limits assumed): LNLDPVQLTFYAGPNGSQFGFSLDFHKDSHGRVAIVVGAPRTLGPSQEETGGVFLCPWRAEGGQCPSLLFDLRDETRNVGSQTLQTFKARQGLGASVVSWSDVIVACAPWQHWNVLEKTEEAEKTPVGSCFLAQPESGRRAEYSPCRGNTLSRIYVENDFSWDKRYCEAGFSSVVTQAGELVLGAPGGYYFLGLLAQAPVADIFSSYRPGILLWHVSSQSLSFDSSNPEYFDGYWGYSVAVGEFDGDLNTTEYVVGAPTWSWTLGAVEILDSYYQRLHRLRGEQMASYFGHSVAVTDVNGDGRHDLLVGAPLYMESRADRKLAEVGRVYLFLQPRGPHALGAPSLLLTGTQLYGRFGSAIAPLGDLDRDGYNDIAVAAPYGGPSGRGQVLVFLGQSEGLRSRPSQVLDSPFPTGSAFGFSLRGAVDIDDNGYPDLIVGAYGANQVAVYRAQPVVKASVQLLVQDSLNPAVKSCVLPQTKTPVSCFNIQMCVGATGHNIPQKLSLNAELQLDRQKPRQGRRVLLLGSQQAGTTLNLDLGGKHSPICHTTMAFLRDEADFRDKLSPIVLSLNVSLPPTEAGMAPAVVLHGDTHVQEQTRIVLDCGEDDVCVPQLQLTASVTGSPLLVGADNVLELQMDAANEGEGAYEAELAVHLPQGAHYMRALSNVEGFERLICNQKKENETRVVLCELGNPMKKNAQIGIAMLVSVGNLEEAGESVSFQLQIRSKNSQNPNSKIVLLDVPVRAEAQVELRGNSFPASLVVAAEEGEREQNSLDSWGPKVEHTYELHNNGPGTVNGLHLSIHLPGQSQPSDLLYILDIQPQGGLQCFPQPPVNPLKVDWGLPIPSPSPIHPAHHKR
# Sequence of Integrin alpha-IIb/beta-3 (P08514 891-1039 limits assumed): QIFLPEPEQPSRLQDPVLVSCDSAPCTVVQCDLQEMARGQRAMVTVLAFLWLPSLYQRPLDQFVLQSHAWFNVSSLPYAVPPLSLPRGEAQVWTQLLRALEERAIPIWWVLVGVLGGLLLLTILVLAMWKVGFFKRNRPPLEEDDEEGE
IC50 [1] [nM],IC50 [2] [nM],Compound
8000,–,N=C(N)c1ccc2[nH]c(C(=O)NCCC(=O)NC(CC(=O)O)c3ccccc3)cc2c1 (configuration not stated) [3-{3-[(5-Carbamimidoyl-1H-indole-2-carbonyl)-amino]-propionylamino}-3-phenyl-propionic acid]
5000,–,CC(CC(=O)NC(CC(=O)O)c1ccccc1)NC(=O)c1cc2cc(C(=N)N)ccc2[nH]1 (configuration not stated) [3-{3-[(5-Carbamimidoyl-1H-indole-2-carbonyl)-amino]-butyrylamino}-3-phenyl-propionic acid]
300,–,"COc1ccc(C(CC(=O)O)NC(=O)CCNC(=O)c2cc3cc(C(=N)N)ccc3o2)cc1OC (configuration not stated) [3-{3-[(5-Carbamimidoyl-benzofuran-2-carbonyl)-amino]-propionylamino}-3-(3,4-dimethoxy-phenyl)-propionic acid]"
53,–,CCCCS(=O)(=O)NC(CNC(=O)CCNC(=O)c1[nH]nc2cc(C(=N)N)ccc12)C(=O)O (configuration not stated) [2-(Butane-1-sulfonylamino)-3-{3-[(6-carbamimidoyl-1H-indazole-3-carbonyl)-amino]-propionylamino}-propionic acid]
300,–,C#CC(CC(=O)O)NC(=O)CCNC(=O)c1cc2cc(C(=N)N)ccc2o1 (configuration not stated) [3-{3-[(5-Carbamimidoyl-benzofuran-2-carbonyl)-amino]-propionylamino}-pent-4-ynoic acid]
25000,–,N=C(N)c1ccc2[nH]c(C(=O)N3CCC(C(=O)NC(CC(=O)O)c4ccccc4)CC3)cc2c1 (configuration not stated) [3-{[1-(5-Carbamimidoyl-1H-indole-2-carbonyl)-piperidine-4-carbonyl]-amino}-3-phenyl-propionic acid]
630,–,N=C(N)c1ccc2c(C(=O)NCCC(=O)NC(CC(=O)O)c3ccccc3)[nH]nc2c1 (configuration not stated) [3-{3-[(6-Carbamimidoyl-1H-indazole-3-carbonyl)-amino]-propionylamino}-3-phenyl-propionic acid]
5000,–,CN(CCC(=O)NC(CC(=O)O)c1ccccc1)C(=O)c1cc2cc(C(=N)N)ccc2[nH]1 (configuration not stated) [3-{3-[(5-Carbamimidoyl-1H-indole-2-carbonyl)-methyl-amino]-propionylamino}-3-phenyl-propionic acid]
2200,–,N=C(N)c1ccc2c(C(=O)NCCC(=O)NC(CC(=O)O)c3ccccc3)c[nH]c2c1 (configuration not stated) [3-{3-[(6-Carbamimidoyl-1H-indole-3-carbonyl)-amino]-propionylamino}-3-phenyl-propionic acid]
350,–,"N=C(N)c1ccc2oc(C(=O)NCCC(=O)NC(CC(=O)O)c3cc(F)cc(F)c3)cc2c1 (configuration not stated) [3-{3-[(5-Carbamimidoyl-benzofuran-2-carbonyl)-amino]-propionylamino}-3-(3,5-difluoro-phenyl)-propionic acid]"
–,65,CN(C)c1cccc2c(S(=O)(=O)N[C@@H](CNC(=O)CCNC(=O)c3cc4cc(C(=N)N)ccc4o3)C(=O)O)cccc12 [(S)-3-{3-[(5-Carbamimidoyl-benzofuran-2-carbonyl)-amino]-propionylamino}-2-(5-dimethylamino-naphthalene-1-sulfonylamino)-propionic acid]
1350,–,N=C(N)c1ccc2cc(C(=O)NCCC(=O)NC(CC(=O)O)c3ccccc3)[nH]c2c1 (configuration not stated) [3-{3-[(6-Carbamimidoyl-1H-indole-2-carbonyl)-amino]-propionylamino}-3-phenyl-propionic acid]
250,–,"N=C(N)c1ccc2oc(C(=O)NCCC(=O)NC(CC(=O)O)C(F)(F)F)cc2c1 (configuration not stated) [3-{3-[(5-Carbamimidoyl-benzofuran-2-carbonyl)-amino]-propionylamino}-4,4,4-trifluoro-butyric acid]"
300,–,"N=C(N)c1ccc2oc(C(=O)NCCC(=O)NC(CC(=O)O)c3cc(F)ccc3F)cc2c1 (configuration not stated) [3-{3-[(5-Carbamimidoyl-benzofuran-2-carbonyl)-amino]-propionylamino}-3-(2,5-difluoro-phenyl)-propionic acid]"
5000,–,"N=C(N)c1ccc2oc(C(=O)N3Cc4ccccc4CC3C(=O)NC(CC(=O)O)c3ccccc3)cc2c1 (configuration not stated) [3-{[2-(5-Carbamimidoyl-benzofuran-2-carbonyl)-1,2,3,4-tetrahydro-isoquinoline-3-carbonyl]-amino}-3-phenyl-propionic acid]"
200,–,N=C(N)c1ccc2oc(C(=O)NCCC(=O)NC(CC(=O)O)c3cccnc3)cc2c1 (configuration not stated) [3-{3-[(5-Carbamimidoyl-benzofuran-2-carbonyl)-amino]-propionylamino}-3-pyridin-3-yl-propionic acid]

IC50 [1] [nM],IC50 [2] [nM],Compound
25000,–,CN(CC(=O)NC(CC(=O)O)c1ccccc1)C(=O)c1cc2cc(C(=N)N)ccc2[nH]1 (configuration not stated) [3-{2-[(5-Carbamimidoyl-1H-indole-2-carbonyl)-methyl-amino]-acetylamino}-3-phenyl-propionic acid]
50000,–,"N=C(N)c1ccc2[nH]c(C(=O)NC(CC(=O)NC(CC(=O)O)c3ccccc3)C(F)(F)F)cc2c1 (configuration not stated) [3-{3-[(5-Carbamimidoyl-1H-indole-2-carbonyl)-amino]-4,4,4-trifluoro-butyrylamino}-3-phenyl-propionic acid]"
55,–,CCCCS(=O)(=O)NC(CNC(=O)CCNC(=O)c1cc2ccc(C(=N)N)cc2[nH]1)C(=O)O (configuration not stated) [2-(Butane-1-sulfonylamino)-3-{3-[(6-carbamimidoyl-1H-indole-2-carbonyl)-amino]-propionylamino}-propionic acid]
200,–,N=C(N)c1ccc2oc(C(=O)NCCC(=O)NC[C@H](N)C(=O)O)cc2c1 [(S)-2-Amino-3-{3-[(5-carbamimidoyl-benzofuran-2-carbonyl)-amino]-propionylamino}-propionic acid]
–,25,N=C(N)c1ccc2oc(C(=O)NCCC(=O)NC[C@H](NS(=O)(=O)c3ccc(I)cc3)C(=O)O)cc2c1 [(S)-3-{3-[(5-Carbamimidoyl-benzofuran-2-carbonyl)-amino]-propionylamino}-2-(4-iodo-benzenesulfonylamino)-propionic acid]
5000,–,N=C(N)c1ccc2[nH]c(C(=O)N3CCC[C@H]3C(=O)NC(CC(=O)O)c3ccccc3)cc2c1 (stereo partly drawn) [3-{[(S)-1-(5-Carbamimidoyl-1H-indole-2-carbonyl)-pyrrolidine-2-carbonyl]-amino}-3-phenyl-propionic acid]
35,–,CCCCS(=O)(=O)N[C@@H](CNC(=O)CCNC(=O)c1cc2cc(C(=N)N)ccc2o1)C(=O)O [(S)-2-(Butane-1-sulfonylamino)-3-{3-[(5-carbamimidoyl-benzofuran-2-carbonyl)-amino]-propionylamino}-propionic acid]
250,–,CN(CCC(=O)NC(CC(=O)O)c1ccccc1)C(=O)c1cc2cc(C(=N)N)ccc2o1 (configuration not stated) [3-{3-[(5-Carbamimidoyl-benzofuran-2-carbonyl)-methyl-amino]-propionylamino}-3-phenyl-propionic acid]
250,–,N=C(N)c1ccc2oc(C(=O)NCCC(=O)NC(CC(=O)O)c3ccccc3)cc2c1 (configuration not stated) [3-{3-[(5-Carbamimidoyl-benzofuran-2-carbonyl)-amino]-propionylamino}-3-phenyl-propionic acid]
600,–,N=C(N)c1ccc2oc(C(=O)NCCC(=O)NC(CCc3c[nH]c4ccccc34)CC(=O)O)cc2c1 (configuration not stated) [3-{3-[(5-Carbamimidoyl-benzofuran-2-carbonyl)-amino]-propionylamino}-5-(1H-indol-3-yl)-pentanoic acid]
50000,–,N=C(N)c1ccc2[nH]c(C(=O)NCC(=O)NC(CC(=O)O)c3ccccc3)cc2c1 (configuration not stated) [3-{2-[(5-Carbamimidoyl-1H-indole-2-carbonyl)-amino]-acetylamino}-3-phenyl-propionic acid]
25000,–,N=C(N)c1ccc2[nH]c(C(=O)Nc3cccc(C(=O)NC(CC(=O)O)c4ccccc4)c3)cc2c1 (configuration not stated) [3-{3-[(5-Carbamimidoyl-1H-indole-2-carbonyl)-amino]-benzoylamino}-3-phenyl-propionic acid]
250,–,N=C(N)c1ccc2oc(C(=O)N3CCCC(C(=O)NC(CC(=O)O)c4ccccc4)C3)cc2c1 (configuration not stated) [3-{[1-(5-Carbamimidoyl-benzofuran-2-carbonyl)-piperidine-3-carbonyl]-amino}-3-phenyl-propionic acid]
500,–,"N=C(N)c1ccc2oc(C(=O)NCCC(=O)NC(CC(=O)O)c3ccc(F)c(F)c3)cc2c1 (configuration not stated) [3-{3-[(5-Carbamimidoyl-benzofuran-2-carbonyl)-amino]-propionylamino}-3-(3,4-difluoro-phenyl)-propionic acid]"
2000,–,N=C(N)c1ccc2oc(C(=O)N3CCC[C@@H]3C(=O)NC(CC(=O)O)c3ccccc3)cc2c1 (stereo partly drawn) [3-{[(R)-1-(5-Carbamimidoyl-benzofuran-2-carbonyl)-pyrrolidine-2-carbonyl]-amino}-3-phenyl-propionic acid]
250000,–,CC(C)(NC(=O)c1cc2cc(C(=N)N)ccc2[nH]1)C(=O)NC(CC(=O)O)c1ccccc1 (configuration not stated) [3-{2-[(5-Carbamimidoyl-1H-indole-2-carbonyl)-amino]-2-methyl-propionylamino}-3-phenyl-propionic acid]
